Legend:
Assay type in all cases: cell-based, human
[1] = system: primary fibroblasts from healthy donors; experiment: Cell death of primary fibroblasts by PI staining; conditions: 200 nM, 24 hours; n = 4
Method: (§1) Effectiveness of EC-7072 against different B-cell malignancies was assessed by; • (i) incubating primary fibroblasts from healthy donors (n = 4) and HK-2 cells from healthy human adult kidney (n = 3) following treatment with MTA (200 nM) or EC-7072 (200 nM) for 24 hours. Cell death was evaluated by PI staining to obtain the percentages corresponding to the [PI^+] subset (Figure 5A) and the mean percentage of [PI^+] cells (Figure 5B); • (ii) treating MEC-1, GRANTA-519, Z-138, JVM-2, CA-46, Ramos, Raji and U266 cell lines (n = 3) following treatment with EC-7072 (500 nM) followed by incubation for 24 hours. Cell viability was assessed by DiOC6(3)/PI staining and normalized to control (DMSO) condition to obtain mean percentage of viable [DiOC6(3)^+] cells (Figure 5C).

HK-2 cells = experiment: Cell death of HK-2 cells by PI staining; conditions: 200 nM, 24 hours; n = 3
Method: as §1

NK cells (CD3^-CD56^+) = experiment: NK cell numbers, viability and apoptosis in PBMCs (flow cytometry, DiOC6(3)/PI staining); conditions: idelalisib 10 µM, 48 hours; PBMCs from patients with CLL (n = 6 - 8); Figure 4G
Method: (§2) To evaluate absolute cell numbers, an equal volume of PKH26 reference microbeads (Sigma-Aldrich) was added to each sample after staining for immune subset identification. Microbeads (5x10^3) were acquired by flow cytometry and absolute numbers of each immune population within the sample were calculated. Normalized percentage values were calculated considering the control (DMSO)-treated cells as 100%.
(§3) Cell viability and apoptosis were evaluated by double-staining with the mitochondrial inner transmembrane potential (ΔΨm)-sensitive dye DiOC6(3) (3,3'-dihexyloxacarbocyanine iodide; Sigma-Aldrich) and the exclusion dye propidium iodide (PI; Immunostep), allowing identification of apoptotic [DiOC6(3)^low PI^-] and dead [PI^+] cells as per Proc. Natl. Acad. Sci. U.S.A. (2014) 111(8):3020-3025 and Methods Mol. Biol. (2016) 1419:1-16. Briefly, PBMCs were resuspended in culture medium containing 20 nM DiOC6(3) and incubated for 30 minutes at 37 °C. Then, PI (1 µg/mL) was added and cells were further incubated for 10 minutes at room temperature (RT). Cells were analyzed by flow cytometry considering DiOC6(3)^+PI^- cells as viable. In some experiments, apoptosis was evaluated by staining with Annexin V/PI. Thus, PBMCs were incubated in Annexin V binding buffer containing 5 µg/mL Annexin V-FITC (Biolegend) for 15 minutes at RT and PI (1 µg/mL) was subsequently added. Data were normalized to the untreated control as a percentage. Only samples with at least 60% of viable cells (DiOC6(3)^+; Annexin V^-) in the control (DMSO) condition were employed in this study.
(§4) The effect of EC-7072 toward healthy immune subsets, T lymphocytes and natural killer (NK) cells, which are chronically exposed to leukemia cells in the peripheral blood of patients with CLL was assessed by: • (i) incubating PBMCs isolated from patients with CLL (n = 10) following treatment with increasing concentrations of EC-7072 (0 - 400 nM) for 24 hours. Numbers of T cells (CD3^+CD56^-) (Figure 2A) and NK cells (CD3^-CD56^+) (Figure 2B) were evaluated by flow cytometry and normalized to their respective control (DMSO) condition for each individual patient to obtain percentage of relative number of T cells and NK cells, respectively; • (ii) incubating PBMCs isolated from patients with CLL (n = 6 - 10) following treatment with increasing concentrations of EC-7072 (0 - 400 nM) for 24 hours. Viability of immune subsets (leukemia cells, T cells and NK cells) was determined by cytofluorometric assessment of DiOC6(3)/PI staining and normalized to their respective control (DMSO) condition for each individual patient to obtain percentage of viable [DiOC6(3)^+] cells (Figures 2C and 2D); • (iii) incubating PBMCs isolated from patients with CLL (n = 11) following treatment with DMSO or EC-7072 (200 nM) for 24 hours. Numbers of CD4^+ cells (Figure 2E) and CD8^+ T cells (Figure 2F) were evaluated by flow cytometry and normalized to their respective control (DMSO) condition for each individual experiment; • (iv) incubating PBMCs isolated from healthy donors (n = 15) following treatment with EC-7072 (200 nM) for 24 hours. […]

T cells (CD3^+CD56^-) = experiment: T cell numbers, viability and apoptosis in PBMCs (flow cytometry, DiOC6(3)/PI staining); conditions: idelalisib 10 µM, 48 hours; PBMCs from patients with CLL (n = 6 - 8); Figure 4G
Method: as §2, §3, §4

primary CLL cells = experiment: Leukemia cell viability and apoptosis by DiOC6(3)/PI staining and flow cytometry; conditions: Z-VAD-fmk 0-100 µM pretreatment, then EC-7072 200 nM for 24 hours; n = 6
Method: as §3
The in vitro cytotoxic activity of EC-7072 against primary CLL cells was assessed by: • (i) incubating PBMCs isolated from patients with CLL (n = 13) following treatment with increasing concentrations of EC-7072 (0 - 400 nM) for 24 hours. Numbers of leukemia cells were evaluated by flow cytometry and normalized to their respective control (DMSO) condition for each individual patient to obtain percentage of leukemia cells (Figure 1A); • (ii) incubating PBMCs from patients with CLL (n = 10) with or without EC-7072 (100-400 nM) for 24 hours. Viability of leukemia cells was determined by cytofluorometric assessment of DiOC6(3)/PI staining and normalized to their respective control condition to obtain percentage viability (Figure 1B); • (iii) incubating PBMCs from patients with CLL (n = 10) with increasing concentrations of EC-7072 (0 - 400 nM) for 24 hours. Apoptosis of leukemia cells was determined by DiOC6(3)/PI staining and flow cytometry to obtain the mean percentages of apoptotic [DiOC6(3)^low PI^-] and dead [PI^+] cells (Figure 1C); • (iv) incubating PBMCs from patients with CLL (n = 10) with or without EC-7072 (200 nM) for 12 to 72 hours. Viability of leukemia cells was determined by DiOC6(3)/PI staining and normalized to their respective control condition to obtain percentage viability (Figure 1D); • (v) incubating PBMCs from patients with CLL (n = 24) with MTA (200 nM) or EC-7072 (200 nM) for 24 hours. Leukemia cell death was determined by DiOC6(3)/PI staining and flow cytometry to obtain the mean percentages of apoptotic [DiOC6(3)^low PI^-] and dead [PI^+] cells (Figure 1E); • (vi) incubating PBMCs from patients with CLL (n = 63) or healthy donors (n = 20) with or without EC-7072 (200 nM) for 24 hours. Viability of leukemia cells and healthy B cells was evaluated by DiOC6(3)/PI staining and normalized to their respective control condition to obtain percentage viability (Figure 1F); • (vii) incubating PBMCs from patients with CLL (n = 62) following treatment with EC-7072 (200 nM) for 24 hours and obtaining a cytogenetic profile for each patient. Viability of leukemia cells was evaluated by DiOC6(3)/PI staining and normalized to their respective control (DMSO) condition for each individual patient to obtain the percentage of viable [DiOC6(3)^+] cells (Figure 1G); • (viii) incubating PBMCs from patients with CLL (n = 59) following treatment with EC-7072 (200 nM) for 24 hours and determining mutational status of IgHV for each patient. Viability of leukemia cells was evaluated by DiOC6(3)/PI staining and normalized to their respective control (DMSO) condition for each individual patient to obtain the percentage of viable [DiOC6(3)^+] cells (Figure 1H). […]

active caspase-3 = experiment: Caspase-3 activity assay in leukemia cells (flow cytometry); conditions: Z-VAD-fmk 0-100 µM pretreatment, then EC-7072 200 nM for 24 hours; n = 6
Method: Intracellular levels of activated caspase-3 were measured by using CaspGLOW™ Fluorescein Active Caspase-3 Staining Kit (Invitrogen). In brief, EC-7072 (200 nM) or DMSO-treated PBMCs from patients with CLL were incubated with FITC-DEVD-fmk for 30 minutes at 37 °c and fluorescence was next analyzed by flow cytometry in leukemia cells. For some experiments, cells were pretreated for 2 hours with the indicated doses of the broad-spectrum caspase inhibitor Z-VAD-fmk.
The induction of caspase-dependent apoptosis on primary CLL cells by EC-7072 was assessed by: • (i) incubating PBMCs isolated from patients with CLL (n = 6) following treatment with increasing concentrations of EC-7072 (0 - 400 nM) for 24 hours. Apoptosis of leukemia cells was evaluated by cytofluorometric assessment of Annexin V/PI staining to obtain percentages of apoptotic [Annexin V^+ PI^-] and dead [PI^+] cells (Figure 3A); • (ii) incubating PBMCs and T cells isolated from patients with CLL (n = 3) following treatment with EC-7072 (200 nM) for 24 hours. T cell apoptosis was evaluated by cytofluorometric assessment of Annexin V/PI staining to obtain percentages of viable [Annexin V-], apoptotic [Annexin V^+ PI^-] and dead [PI^+] cells (Figure 3B); • (iii) incubating PBMCs isolated from patients with CLL (n = 6) following treatment with EC-7072 (0 - 400 nM) for 24 hours. […]

COC(C(=O)C(O)C(C)O)C1Cc2cc3cc(OC4CC(OC5CC(O)C(O)C(C)O5)C(O)C(C)O4)c(C)c(O)c3c(O)c2C(=O)C1OC1CC(OC2CC(OC3CC(C)(O)C(O)C(C)O3)C(O)C(C)O2)C(O)C(C)O1 (stereo not drawn) [MTA, Mithramycin A, reference compound]
viability of primary human fibroblasts (PI^+ cells) [1]: high toxicity | viability of HK-2 cells (PI^+ cells) (HK-2 cells): high toxicity

CC[C@H](Nc1ncnc2[nH]cnc12)c1nc2cccc(F)c2c(=O)n1-c1ccccc1 [Idelalisib, reference compound]
viability of NK cells (NK cells (CD3^-CD56^+)): negligible effects | viability of T cells (T cells (CD3^+CD56^-)): negligible effects

Z-VAD-fmk [reference compound]
death of primary CLL cells induced by EC-7072 after Z-VAD-fmk pretreatment (primary CLL cells): completely abrogated the death | active caspase-3 levels on leukemia cells after Z-VAD-fmk pretreatment (active caspase-3): decrease of active caspase-3 levels

Source: patent publication EP3797781A1, “USE OF EC-7072 AND SYNERGIC COMPOSITIONS THEREOF IN TREATMENT OF CHRONIC LYMPHOCYTIC LEUKEMIA” (priority 2019, dated 2021)
